Laboratory results published in patent US9315465B2, “Photostable AIE luminogens for specific mitochondrial imaging and its method of manufacturing thereof” (THE HONG KONG UNIVERSITY OF SCIENCE AND TECHNOLOGY, priority 2013, dated 2016).

What was measured:
[1] = tested on: mitochondria; experiment: Effect of CCCP on mitochondria (pH, ΔΨm, morphology); assay type: cell-based
Description: Excitation wavelength: 405 nm; emission filter: 449-520 nm; irradiation time: 15.49 sec/scan.
(§1) To test the tolerance of TPE-TPP and MT to the change of mitochondrial ΔΨm, carbonyl cyanide m-chlorophenylhydrazone (CCCP) was used to treat the cells prior to the staining procedure. CCCP is an uncoupler that causes rapid acidification of the mitochondria and dysfunction of ATP synthase resulting in the decrease of the mitochondrial ΔΨm. Upon treatment with 20 μM CCCP, the pH of mitochondria decreased about 0.7 and ΔΨm thus decreased around 40 mV according to the Nernst equation. […] Since the targeting of MT to mitochondria is driven by the huge ΔΨm, the decrease of ΔΨm, will affect the direction and accumulation of cationic MT to mitochondria. It was expected that similar phenomena would be observed for TPE-TPP as it shares a similar working principle.
The high tolerance of TPE-TPP to the decrease of ΔΨm enables the observation of change of mitochondrial morphology induced by CCCP. […] The early stage of apoptosis involves remodeling of mitochondrial cristae and the consequent occurrence of morphological change of mitochondria, which is considered as an irreversible process associated with the collapse of ΔΨm. TPE-TPP has excellent specificity to mitochondria with outstanding photostability and tolerance to microenvironment change, representing a potential candidate of tracking agent for apoptosis studies.

[2] = tested on: mitochondria of CCCP-treated HeLa cells; experiment: Tolerance of mitochondrial staining to decrease of mitochondrial ΔΨm (CCCP-treated cells); assay type: cell-based; conditions: HeLa cells treated with 10 μM CCCP prior to staining
From the text: Excitation wavelength: 540-580 nm (for MT) and 330-385 nm (for TPE-TPP).
as §1, with “Upon treatment with 20 μM CCCP, the pH of mitochondria decreased about 0.7 and ΔΨm thus decreased around 40 mV according to the Nernst equation.” left out

[3] = tested on: reactive oxygen species (ROS); experiment: ROS detection with H2DCFDA under UV irradiation; conditions: solution of TPE-IQ 10 μM and H2DCFDA 1 μM, intensity at 521 nm
Description: Concentration of TPE-IQ: 10 μM; concentration of H2DCFDA: 1 μM.
(§2) With UV irradiation, the morphology of mitochondria changed gradually, indicating the initiation of the cell apoptosis process. […] To understand the underlying mechanism of TPE-IQ induced cell apoptosis, reactive oxygen species (ROS) detection agent H2DCFDA was utilized. […] This means that TPE-IQ could be utilized as a sensitizer for ROS generation, to induce cell apoptosis. Considering the mitochondria targeting of the probe, TPE-IQ could be used as an apoptosis inducer while enabling observation of the morphology change of the mitochondria at the same time. Besides, the probe may be utilized in phototherapy for selectively killing specific cells, while allowing for the study of how cells communicate when one cell undergoes the apoptosis process.

[4] = tested on: HeLa cell; experiment: UV-irradiation induced mitochondrial morphology change / apoptosis in stained cells; assay type: cell-based; conditions: HeLa cell stained with TPE-IQ, UV 6 s then 15 min in the dark
From the text: (A) 1 s; (B) 2 s; (C) 6 s; (D) 11 s.
as §2

[5] = tested on: mitochondria of the living HeLa cells; experiment: Mitochondria staining and co-localization by fluorescence microscopy; assay type: cell-based
Description: TPE-TPP was then assessed for its ability to localize and stain mitochondria in living cells by fluorescence microscope. Cervical cancer HeLa cells were incubated with 5 μM TPE-TPP for 1 h and excess dyes were washed away by buffer solution.
Pearson's correlation coefficient (Rr; from +1 to −1), which indicates the degree of linear dependence between two variables, is used to quantify the overlapping of the staining region between TPE-TPP and MT.
In FIG. 7A, cells were incubated with TPE-TPP for 1 h.
An AIE luminogen targeting mitochondria specifically with red fluorescence emission was also synthesized, i.e., TPE-MitoR, (E)-1-ethyl-3,3-dimethyl-2-(2-(4′(1,2,2-triphenylvinyl)-[1,1′-biphenyl]-4-yl)vinyl)-3H-indol-1-ium hexafluorophosphate. […] TPE-MitoR's ability for tracking mitochondria is evaluated by colocalizing with TPE-TPP (FIG. 14).
In addition, cell fixation is important for sample preserving.

[6] = tested on: HeLa cells; experiment: Cytotoxicity by MTT assay; assay type: cell-based; conditions: added to the culture medium
Description: Applying an organelle tracker into living sample, the cytotoxicity of the probe, TPE-TPP, was evaluated using the 3-(4,5-dimethyl-2-thiazolyl)-2,5-diphenyltetrazolium bromide (MTT) assay (FIG. 6).

[7] = Particle size analysis of nanoaggregates; assay type: physicochemical; conditions: aqueous solution containing 0.1% DMSO, identical condition for cell staining
From the text: The DMF solution of TPE-TPP was almost non-emissive while the solid state is strongly luminescent at 466 nm. […] The scheme of synthesis of said TPP-functionalized TPE is as follow: […]

[8] = From the text: The TPE core was synthesized simply from a McMurry coupling reaction. TPP was attached through bromination and subsequent reaction with triphenylphosphine.

N#CC(C#N)=NNc1cccc(Cl)c1 [CCCP, carbonyl cyanide m-chlorophenylhydrazone]
decrease of pH of mitochondria ([1]; 20 μM CCCP): about 0.7 | decrease of ΔΨm ([1]; 20 μM CCCP, according to the Nernst equation): around 40 mV | change of mitochondrial morphology ([1]; living HeLa cells exposed to CCCP (20 μM), stained with TPE-TPP): gradually transformed to small and dispersed fragments

CN1C(=CC=Cc2n(Cc3ccc(CCl)cc3)c3cc(Cl)c(Cl)cc3[n+]2Cc2ccc(CCl)cc2)C(C)(C)c2ccccc21.[Cl-] [MT]
specificity and sensitivity to mitochondria in CCCP-treated cells [2]: no more specificity to mitochondria and the sensitivity became worse

CCC[n+]1cc2ccc(C(=C(c3ccccc3)c3ccccc3)c3ccccc3)cc2c(-c2ccccc2)c1-c1ccccc1 [TPE-IQ, 3,4-diphenyl-2-propyl-6-(1,2,2-triphenylvinyl)isoquinolin-2-ium tetrafluoroborate]
H2DCFDA fluorescence (ROS production) with continuous UV irradiation [3]: increased gradually | mitochondrial morphology after UV irradiation [4]: changed substantially | mitochondria targeting in fixed cells ([5]; HeLa cells after 4% paraformaldehyde (PFA) fixation for 50 min): could still target to the mitochondria | incubation time sufficient for lighting up the mitochondria ([5]; HeLa cells, 200 nM): 10 min | emission from the mitochondria of the cells ([5]; HeLa cells, 500 nM, 1 min incubation): strong emission

CC[N+]1=C(/C=C/c2ccc(-c3ccc(C(=C(c4ccccc4)c4ccccc4)c4ccccc4)cc3)cc2)C(C)(C)c2ccccc21 [TPE-MitoR, (E)-1-ethyl-3,3-dimethyl-2-(2-(4′(1,2,2-triphenylvinyl)-[1,1′-biphenyl]-4-yl)vinyl)-3H-indol-1-ium hexafluorophosphate]
ability for tracking mitochondria (colocalization with TPE-TPP) ([5]; HeLa cells, 5 μM, 30 min): promising result in locating mitochondria

[Br-].[Br-].c1ccc(C(=C(c2ccccc2)c2ccc(C[P+](c3ccccc3)(c3ccccc3)c3ccccc3)cc2)c2ccc(C[P+](c3ccccc3)(c3ccccc3)c3ccccc3)cc2)cc1 [TPE-TPP, Bis(Triphenylphosphonium) Tetraphenylethene]
concentration up to which cell viability is not significantly altered [6]: up to 7.5 μM | specificity and sensitivity to mitochondria in CCCP-treated cells [2]: perfectly retained | localization of staining in living cells ([5]; HeLa cells, 5 μM, 1 h): stains specifically the mitochondrial region | staining time sufficient to enter and light up mitochondria ([5]; HeLa cells, data not shown): 15 min | Pearson's correlation coefficient (Rr) of overlap with MitoTracker Red FM (MT) ([5]; co-staining in living HeLa cells, TPE-TPP 5 μM, MT 50 nM): 0.96 | average particle size [7]: 144 nm | solubility in aqueous solution ([8]; aqueous solution): relatively poor solubility | solubility in polar solvents ([8]; polar solvents such as DMF and DMSO): completely soluble
